Laboratory results reported in paper doi:10.1101/2020.12.17.423306v1 (biorxiv, 2020).

Experiments:
[1] = biological target: T1, HIS1 (Oryza sativa, UniProt A0A7G1K8F5); assay: HPLC of BBC-OH hydroxylation; assay type: biochemical
T1 sequence (A0A7G1K8F5 1-351): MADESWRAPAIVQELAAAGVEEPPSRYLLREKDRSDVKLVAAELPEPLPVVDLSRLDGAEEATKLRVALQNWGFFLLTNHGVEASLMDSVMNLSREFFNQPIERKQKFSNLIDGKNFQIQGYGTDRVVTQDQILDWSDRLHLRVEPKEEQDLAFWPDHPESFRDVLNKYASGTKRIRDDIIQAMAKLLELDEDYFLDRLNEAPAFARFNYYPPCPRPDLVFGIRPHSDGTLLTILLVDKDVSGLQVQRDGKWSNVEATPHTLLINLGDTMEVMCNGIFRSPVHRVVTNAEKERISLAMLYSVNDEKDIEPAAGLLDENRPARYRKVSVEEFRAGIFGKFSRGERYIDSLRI

[2] = biological target: T2, OsHSL1 (Oryza sativa, UniProt A0A7G1K9G4); assay: HPLC of TFT conversion; assay type: biochemical
T2 sequence (A0A7G1K9G4 1-350): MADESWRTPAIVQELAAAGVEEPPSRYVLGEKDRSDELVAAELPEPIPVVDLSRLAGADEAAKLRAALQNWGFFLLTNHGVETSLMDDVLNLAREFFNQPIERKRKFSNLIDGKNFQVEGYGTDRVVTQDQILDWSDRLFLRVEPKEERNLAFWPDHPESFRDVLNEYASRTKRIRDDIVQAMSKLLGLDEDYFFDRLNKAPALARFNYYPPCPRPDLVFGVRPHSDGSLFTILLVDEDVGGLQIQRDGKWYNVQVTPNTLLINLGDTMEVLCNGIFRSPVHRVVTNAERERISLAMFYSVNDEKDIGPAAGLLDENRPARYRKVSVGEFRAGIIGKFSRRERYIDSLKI

IC50 [1] [µM] | IC50 [2] [µM] | Compound
50 |  | CCC(=O)C1C(=O)CC(C(=O)O)CC1=O (centres unmarked) [prohexadione, 3,5-dioxo-4-propionylcyclohexanecarboxylic acid]
 | ~125 | CCOC(=O)C1CC(=O)C(=C(O)C2CC2)C(=O)C1 (centres unmarked) [TE, ethyl-(3-oxido-4-cyclopropionyl-5-oxo) oxo-3-cyclohexenecarboxylate]
